Where “and” joins values, the source holds several entries; their conditions need not be identical. Equal values may be shown once.
How the values were obtained:
BCL-XL = target: T1, BCL-XL (Homo sapiens, UniProt Q07817, DEL27-81); assay: SPR binding assay, BCL-XL; settings: affinity fitting, mean ± SD of three independent experiments, 25 °C
T1 construct: human BCL-XL (residues 1–210, with 27–81 and 210–233 removed); vector-borne tag of pET-22b (Ni-NTA purification implies a His tag); made in house; host or cells: E. coli BL21 (DE3)
Excerpt: The DNA fragments encoding human BCL-XL ([…], with […] removed), BCL-w (residues 6–152), MCL-1 (residues 152–308) and BFL-1 (residues 1–151) as previously reported[18] were cloned into a pET-22b vector (Invitrogen), respectively. A chimeric human BCL-2 (including residues 1–50 and 92–207) was constructed, by removing the internal long loop (residues 51–91) and replacing its residues 35–50 with residues 33–48 of BCL-XL to solubilize the protein[14], and then it was cloned into a pET28a-Sumo vector (Invitrogen). All BCL-2 mutants (G101V, F104L, Y103D, D111A) were generated by mutagenic PCR, according to the QuikChange (Stratagene) protocol.
SPR assays were performed using a Biacore T200 instrument in running buffer consisting 10 mM PBS, 50 μM EDTA and 0.05% Tween-20 at 25 °C. Biotinylated proteins were immobilized on a CAP sensor chip (Cytiva, 28920234). […] The binding affinities were quantified by the Biacore evaluation software using 1:1 binding model. The reproducibility of the assays was confirmed by performing replicate determinations.

Jurkat cells [1] = assay: Apoptosis assay, Annexin V-FITC/PI staining and flow cytometry; format: cell-based
Description: Jurkat cells were seeded to 6-well plates at a density of 4 ×10^5 cells per well. Cells were incubated in the presence of DMSO, venetoclax at 2.5 μM, cp1-TAT at 30 μM, cp2-TAT at 30 μM, or cp3-TAT at 20 μM in serum-free RPMI medium for 4 h. After being incubated totally for 24 h, cells were washed once with PBS and stained with 100 μL binding buffer containing 5 μL Annexin V-FITC and 10 μL PI for 15 min, followed by addition of 400 μL binding buffer to detect cell apoptosis with FCM (BD FACSAria Fusion). Statistical analysis was performed using software FlowJo V10 and GraphPad Prism 7.0.

Jurkat cells [2] = assay: Cytochrome C release assay (mitochondrial cytochrome C, Western blot); format: cell-based; settings: 2.5 μM, 12 h
Description: Jurkat cells at 2 ×10^6 cells/mL were incubated in the presence of DMSO or 50 μM BIP-V5 inhibitor[54] (Yuanye Biotechnology Co., Ltd, 579492-81-2) for 24 h. Two groups of above treated cells were each divided into four groups and incubated in the presence of DMSO, venetoclax at 2.5 μM, cp4-TAT at 20 μM, or cp5-TAT at 15 μM in serum-free RPMI medium for 4 h. Then the medium was supplemented with FBS to 10% and incubated for another 8 h. After being treated by venetoclax or CPs for totally 12 h, cell were processed with the Mitochondrial Separation Kit (Beyotime, C3601) to extract mitochondria. Cytochrome C in mitochondria and BAX proteins in the whole cells were detected by Western blot.
Cell lysates containing equal amounts of total proteins were denatured, subjected to electrophoresis on SDS-PAGE gels, and transferred onto nitrocellulose membranes. The blots were blocked with 5% skim milk and then incubated at 4 °C overnight with the corresponding primary antibodies against BCL-2 (dilution 1:1000, Abcam, ab194583), BCL-XL (dilution 1:1000, Abcam, ab32370), anti-Flag (dilution 1:1000, Sigma, F1804), cytochrome C (dilution 1:1000, Beyotime, AC909), BAX (dilution 1:1000, Beyotime, AB026), α-Tubulin (dilution 1:3000, Abcam, ab7291), or β-Actin (dilution 1:3000, Abcam, ab8227). […]

Jurkat cells [3] = assay: Mitochondrial membrane potential (JC-1), flow cytometry and fluorescence microscopy; format: cell-based; settings: Jurkat
Description: For the mitochondrial membrane potential (ΔΨm) analysis, the mitochondrial membrane potential assay kit with JC-1 dye (Beyotime, C2006) was used according to the manufacturer’s protocol. […] The value of ΔΨm was expressed as the ratio of red fluorescence intensity over green fluorescence intensity. After treated with JC-1, fluorescence intensity of Jurkat cells was tested by flow cytometry (BD FACSAria Fusion) and fluorescence microscopy (NIKON Ti-E), respectively. All experiments were performed in triplicate. Statistical analysis was performed using software GraphPad Prism 7.0.

T1 sequence (Q07817 with tags, fused parts or gaps DEL27-81): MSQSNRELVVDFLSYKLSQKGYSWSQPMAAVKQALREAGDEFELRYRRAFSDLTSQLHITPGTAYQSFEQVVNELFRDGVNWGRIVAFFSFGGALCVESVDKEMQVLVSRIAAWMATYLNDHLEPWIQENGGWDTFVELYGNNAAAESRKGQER

Compound | Kd (BCL-XL) [nM] | cell apoptosis(%) (Jurkat cells [1]; Figure 6b, replicate values) | Proportion of apoptotic cells (Jurkat cells [1]; Jurkat, 24 h, 2.5 μM) [%] | Cytochrome C level in mitochondria (Jurkat cells [2]) | ΔΨm (ratio of red over green fluorescence, Q1/Q3) (Jurkat cells [3]; 4 h treatment, JC-1, flow cytometry, n = 3) | Relative ΔΨm by JC-1 fluorescence staining (microscopy) (Jurkat cells [3]; 24 h treatment (Supplementary Fig. 13))
O=C(c1cc(-c2cc3c(cc2C(=O)N2Cc4ccccc4C[C@H]2CN2CCOCC2)OCO3)n2c1CCCC2)N(c1ccccc1)c1ccc(O)cc1 [S55746] | 175 ± 42 | – | – | – | – | –
CC1(C)CCC(CN2CCN(c3ccc(C(=O)NS(=O)(=O)c4ccc(NCC5CCOCC5)c([N+](=O)[O-])c4)c(Oc4cnc5[nH]ccc5c4)c3)CC2)=C(c2ccc(Cl)cc2)C1 [venetoclax] | – | 94.5% and 85.6% | 94.5 | decreased clearly | 0.1 | red fluorescence almost disappeared

From publication PMC10874388, “Cyclic peptides discriminate BCL-2 and its clinical mutants from BCL-XL by engaging a single-residue discrepancy” (Nature Communications, 2024)
